Measured values from patent publication US12171761B2, “Vilazodone inclusion complexes, compositions and preparation thereof” (Sunshine Lake Pharma Co., Ltd., priority 2016, dated 2024).

Test: Solubility of vilazodone under different physiological pH conditions
Type: physicochemical
Description: The inventors discovered that a main cause of the difference in vilazodone bioavailability between fasted and fed conditions is the significant difference in the solubility of vilazodone under different physiological pH conditions. Vilazodone is mainly absorbed in the small intestine where the physiological pH is about 6.8, and the solubility of vilazodone under such a pH is very low. Thus the amount and rate of vilazodone that is dissolved in the stomach will affect its absorption in the small intestine. […] However, in a 0.1 N HCl solution (simulated stomach fasted conditions), the solubility of vilazodone is poor, resulting in a significant reduction in bioavailability.

solubility of vilazodone (0.1 N HCl solution (simulated stomach fasted conditions)): poor
solubility of vilazodone (pH 3.1 buffer (simulated stomach fed conditions)): dissolves well
solubility of vilazodone (physiological pH about 6.8 (small intestine)): very low
Structure (SMILES): N#Cc1ccc2[nH]cc(CCCCN3CCN(c4ccc5oc(C(N)=O)cc5c4)CC3)c2c1 [Vilazodone, 5-(4-[4-(5-cyano-1H-indol-3-yl)butyl]-1-piperazinyl)-2-benzofuran-2-carboxamide]
